For orientation: Ki means the dissociation constant of the complex between target and ligand, obtained from inhibition or displacement. A lower Ki goes with a stronger hold on the target.

In one test the target is T1, Estrogen receptor (Homo sapiens, UniProt P03372).
T1 sequence (P03372 whole entry): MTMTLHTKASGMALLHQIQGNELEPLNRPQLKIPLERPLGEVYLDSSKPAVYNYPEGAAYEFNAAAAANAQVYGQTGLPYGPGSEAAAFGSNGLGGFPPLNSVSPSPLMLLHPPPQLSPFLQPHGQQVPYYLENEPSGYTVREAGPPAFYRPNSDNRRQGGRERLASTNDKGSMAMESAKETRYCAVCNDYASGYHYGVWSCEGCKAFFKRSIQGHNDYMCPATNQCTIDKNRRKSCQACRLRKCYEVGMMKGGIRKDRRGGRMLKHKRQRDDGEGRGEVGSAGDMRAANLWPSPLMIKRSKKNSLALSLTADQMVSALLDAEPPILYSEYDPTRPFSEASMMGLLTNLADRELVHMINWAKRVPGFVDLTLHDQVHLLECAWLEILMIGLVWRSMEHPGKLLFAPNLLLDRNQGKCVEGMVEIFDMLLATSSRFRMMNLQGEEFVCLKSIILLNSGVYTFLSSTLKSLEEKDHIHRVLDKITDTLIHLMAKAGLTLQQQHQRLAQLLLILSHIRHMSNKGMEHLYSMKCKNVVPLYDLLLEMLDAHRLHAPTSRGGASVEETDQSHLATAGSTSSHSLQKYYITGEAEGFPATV
Description: Competitive Binding Assay. The protocol: (§1) Competitive binding of estrogen to GPR30 and ER alpha were conducted using COS-7 cells transfected with GPR30-GFP or ER alpha-GFP and fluorescent estrogen, E2-Alexa633 labeled as a reporter.

Test [1] concerns the target G-protein coupled estrogen receptor 1 (Homo sapiens, UniProt Q99527). Briefly: Competitive Binding Assay. How it is done: as §1

Each structure is given as a SMILES string.

G-protein coupled estrogen receptor 1, sequence (Q99527 whole entry): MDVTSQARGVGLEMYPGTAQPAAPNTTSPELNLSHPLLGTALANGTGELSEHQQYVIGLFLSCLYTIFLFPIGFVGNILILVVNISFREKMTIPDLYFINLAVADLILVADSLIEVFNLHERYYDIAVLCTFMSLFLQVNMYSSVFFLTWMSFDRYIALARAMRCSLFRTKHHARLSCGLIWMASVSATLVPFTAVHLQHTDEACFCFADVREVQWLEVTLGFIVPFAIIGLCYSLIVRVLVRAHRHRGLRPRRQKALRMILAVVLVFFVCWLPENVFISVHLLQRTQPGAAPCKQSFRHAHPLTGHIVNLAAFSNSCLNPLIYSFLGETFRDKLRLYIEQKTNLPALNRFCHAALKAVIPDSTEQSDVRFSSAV

Consider `C[C@]12CCC3c4ccc(O)cc4CCC3C1CC[C@@]2(O)C#Cc1ccc([N+](C)(C)C)cc1` (stereo partly drawn) [E2-NMe3+], for which the Ki at Estrogen receptor came out at 1.4 nM; in test [1], 17 nM.

For the compound `CC(C)(C)OC(=O)NCc1ccc(C#C[C@]2(O)CCC3C4CCc5cc(O)ccc5C4CC[C@@]32C)cc1` (stereo partly drawn) [E2-NB], the Ki at Estrogen receptor stood at 2.7 nM; in test [1], 16 nM.

Turning to `C[C@]12CCC3c4ccc(O)cc4CCC3C1CC[C@@]2(O)C#Cc1cccc(C(=O)O)c1` (stereo partly drawn) [E2-COO-], the results for the inhibition constant Ki (at Estrogen receptor; in test [1]) were 2 nM and 30 nM, respectively.

On to `C[C@]12CCC3c4ccc(O)cc4CCC3C1CC[C@@]2(O)C#Cc1ccc(CN)cc1` (stereo partly drawn) [E2-NH3+], for which the Ki was found to be 4.1 nM at Estrogen receptor and 25 nM in test [1].

For the origin of these results see BindingDB's records for doi:10.1021/cb700072n (University of New Mexico Health Sciences Center, 2007).
